Results reported in US11576979B2, “Pyrrolobenzodiazepine prodrugs and antibody conjugates thereof” (GENENTECH, INC., priority 2016, dated 2023).
“And” between values parts separate entries of the source, which are not always exact repeats. Equal entries are not always repeated.

How the values were obtained:
[1] = test system: Igrov-1; experiment: CellTiter-Glo toxicity, 4 days (Example 9); type: cell-based; conditions: 4 days of drug incubation, Table 7A
Description: (§1) The toxicity of various PBD monomer disulfide prodrugs and PBD dimer disulfide prodrugs was evaluated on UACC-257, Igrov-1 and A2058 cell lines. Cells were seeded in 384-well plate and treated with drug 24 hours later. After 4 days of drug incubation, the cell viability was determined using Promega CellTiter-Glo luminescent reagent, which measures ATP level (an indirect measure of cell number). The luminescent intensity was measured on PerkinElmer Envision reader. The relative cell viability was calculated by normalizing to non-drug treatment control and was graphed using KleidaGraph software package. IC50 value was determined as the concentration to obtain 50% of the maximum cell killing.

[2] = test system: UACC-257; experiment: CellTiter-Glo toxicity, 4 days (Example 9); type: cell-based; conditions: 4 days of drug incubation, Table 7A
Description: as §1

[3] = test system: A2058; experiment: CellTiter-Glo toxicity, 4 days (Example 9); type: cell-based; conditions: 4 days of drug incubation, Table 7A
Description: as §1

[4] = Disulfide cleavage by cysteine, LC/MS; type: physicochemical; conditions: 15 uM compound, 0.2 mM cysteine, pH 7.0, 37 C
Description: (§2) For disulfide cleavage determination, the compounds were incubated at 15 μM with 0.2 mM cysteine or 4 mM GSH in 100 mM Tris buffer pH 7.0 containing 5% methanol at 37° C. Aliquots were taken at specified time points and the samples were analyzed by LC/MS on Sciex TripleTOF 5600 on a Hypersil Gold C18 column (100×2.1, 1.9 Thermo Scientific). The column was eluted by a gradient of buffer A (0.1% formic acid in 10 mM ammonium acetate) to buffer B (0.1% formic acid in 10 mM ammonium acetate in 90% acetonitrile), 5% B 0-0.5 min, 5-25% B 0.5-8 min, 25-75% B 8-13 min, and 75-95% B 13-13.5 min, 95% B 13.5-14.5 min, 95-5% B 14.5-15 min at 0.4 mL/min. All products were separated and characterized by LC/MS/MS in a positive ESI ion mode. All analytes had the protonated molecular MH+ as the major species with little source fragmentation. Full scan accurate mass peak areas were used to estimate relative abundance of each component.

[5] = Disulfide cleavage by glutathione (GSH), LC/MS; type: physicochemical; conditions: 15 uM compound, 4 mM GSH, pH 7.0, 37 C
Description: as §2

[6] = test system: KPL-4; experiment: CELLTITER GLO cell proliferation assay (Example 6); type: cell-based; conditions: KPL4, read-out: IC50 potency KPL-4, Table 4; data in parenthesis = repeat evaluations
Description: (§3) The toxicity of PBD monomer disulfide prodrugs and diaphorase prodrugs were evaluated against KPL-4, WSU-DLCL2, HCT-116, HCC1395 and Jurkat cell cultures. […] KPL-4 cells further have a high expression of DTD on the order of about 839 nRPKM (where nRPKM refers to normalized reads per Kb of transcript length per million mapped read).
(§4) Potency of the disulfide and DT-diaphorase prodrugs was measured by a cell proliferation assay employing the following protocol (CELLTITER GLO™ Luminescent Cell Viability Assay, Promega Corp.). First, an aliquot of 40 ul of cell culture containing about 8000 cells of WSU-DLCL2 cells (low NQO1 gene and GSH level), 4000 cells of KPL-4 (high NQO1 gene and GSH level), HCT-116 cells, HCC1395 cells or Jurkat cells in RPMI-1640 culture medium (supplemented with 10% fetal bovine serum, 2 mM glutamine, 50 uM cystine, and 0.015 g/L L-methionine) was deposited in each well of a 384-well flat clear bottom white polystyrene tissue culture-treated microplates (Corning, N.Y.). Second, control wells were prepared containing medium with and without cells. Third, compounds with and without disulfide or DT-diaphorase prodrugs (n=3) were added to the experimental wells using ECHO acoustic liquid handling technology (Labcyte Inc, Sunnyvale, Calif.) to create a 10-point dose-response curve in triplicate with 1:3× serial dilution. Fourth, cells were cultured in a humidified incubator set at 37° C. and maintaining an atmosphere of 5% CO2. Fifth, the plates were equilibrated to room temperature for approximately 30 minutes. Sixth, a volume of CELLTITER GLO™ Reagent equal to the volume of cell culture medium present in each well was added. Seventh, the contents were mixed for 10 minutes on an orbital shaker in the dark to induce cell lysis. Eighth, the plate was incubated at room temperature for 30 minutes to stabilize the luminescence signal. Ninth, luminescence was recorded and reported in graphs as % activity where RLU (relative luminescence units) was normalized to controls (no compound control minus no cell control). Tenth, data was plotted as individual points for each replicate (n=3) for each antibody as the mean of luminescence for each set of replicates, with standard deviation error bars.

[7] = test system: WSU-DLCL2; experiment: CELLTITER GLO cell proliferation assay (Example 6); type: cell-based; conditions: Homo sapiens, WSUDLCL2, read-out: IC50 potency WSU-DLCL2, Table 4; data in parenthesis = repeat evaluations
Description: as §3, §4

SMILES | IC50 ([1]; Homo sapiens, IGROV-1, 96 h) [nM] | IC50 ([2]; Homo sapiens, UACC-257, 96 h) [nM] | IC50 ([3]; Homo sapiens, A2058, 96 h) [nM] | % Remaining at 24 h by Cys [4] | % Remaining at 24 h by GSH [5] [%] | IC50 [1] [nM] | IC50 [2] [nM] | IC50 [3] [nM] | IC50 [6] [nM] | IC50 [7] [nM] | % Remaining at 4 h by Cys ([4]; 4 h) [%]
C=C1C[C@H]2C(O)N(C(=O)OC[C@@H](C)SSC3COC3)c3cc(OC)c(OC)cc3C(=O)N2C1 (some centres unmarked) [PBD monomer disulfide prodrug 26] | 246 | 328 | 84.5 | 29.1% | 0 |  |  |  |  |  | 
C=C1C[C@H]2C(O)N(C(=O)OCC3(SSCCO)CCOC3)c3cc(OC)c(OC)cc3C(=O)N2C1 (some centres unmarked) [PBD monomer disulfide prodrug 22] | 39.8 | 80.6 | 23.7 | 1.4% | 0 |  |  |  |  |  | 
C=C1C[C@H]2C(O)N(C(=O)OCC3(SSCC)CCOC3)c3cc(OC)c(OC)cc3C(=O)N2C1 (single isomer, unassigned) [PBD monomer disulfide prodrug 11] | 207 | 331 | 108 | 14.4% | 0 |  |  |  |  |  | 
C=C1C[C@H]2C(O)N(C(=O)OCC(C)(C)SSCC)c3cc(OC)c(OC)cc3C(=O)N2C1 (some centres unmarked) [PBD monomer disulfide prodrug 14] |  |  |  | 68.1% | 3 |  |  |  |  |  | 
C=C1C[C@H]2C(O)N(C(=O)OCC3(SSCC)CC3)c3cc(OC)c(OC)cc3C(=O)N2C1 (some centres unmarked) [PBD monomer disulfide prodrug 17] |  |  |  | 34.9% | 0 |  |  |  |  |  | 
C=C1C[C@H]2C(O)N(C(=O)OC[C@@H](C)SSC(C)C)c3cc(OC)c(OC)cc3C(=O)N2C1 (some centres unmarked) [PBD monomer disulfide prodrug 15] | 928 | 1500 | 304 | 99.2% and 90.8% |  |  |  |  |  |  | 
C=C1C[C@H]2C(O)N(C(=O)OCC3(SSCC)CCOC3)c3cc(OC)c(OC)cc3C(=O)N2C1 (single isomer, unassigned) [PBD monomer disulfide prodrug 30] |  |  |  | 47.1% | 0 | 235 | 308 | 108 |  |  | 
C=C1C[C@H]2C(O)N(C(=O)OCC3(SSCC(=O)O)CCC3)c3cc(OC)c(OC)cc3C(=O)N2C1 (some centres unmarked) [PBD monomer disulfide prodrug 9] | 1050 | 2110 | 292 | 81.1% | 1 |  |  |  |  |  | 
C=C1C[C@H]2C(O)N(C(=O)OCC3(SSCC)CCCCC3)c3cc(OC)c(OC)cc3C(=O)N2C1 (some centres unmarked) [PBD monomer disulfide prodrug 18] |  |  |  | 75.3% | 18.7 |  |  |  |  |  | 
C=C1C[C@H]2C(O)N(C(=O)OCCSSC(C)(C)C)c3cc(OC)c(OC)cc3C(=O)N2C1 (some centres unmarked) [PBD monomer disulfide prodrug 16] | 18500 | 19500 | 5590 | 98.6% | 73.2 |  |  |  |  |  | 
C=C1C[C@H]2C(O)N(C(=O)OCc3ccccc3)c3cc(OC)c(OC)cc3C(=O)N2C1 (some centres unmarked) [PBD monomer control 2, reference compound] | > 20000 | > 20000 | > 20000 | 100% | 100 |  |  |  | > 10000 | > 10000 | 
C=C1C[C@H]2C(O)N(C(=O)OC[C@@H](C)SSC3CCOCC3)c3cc(OC)c(OC)cc3C(=O)N2C1 (some centres unmarked) [PBD monomer disulfide prodrug 24] | 1480 | 2690 | 596 | 0.1% | 0 |  |  |  |  |  | 
C=C1C[C@H]2C(O)N(C(=O)OCC3(SSCCO)CCCC3)c3cc(OC)c(OC)cc3C(=O)N2C1 (some centres unmarked) [PBD monomer disulfide prodrug 8] | 172 | 194 | 47.2 | 86.7% | 0.5 |  |  |  |  |  | 
C=C1C[C@H]2C(O)N(C(=O)OC[C@@H](C)SSCC)c3cc(OC)c(OC)cc3C(=O)N2C1 (some centres unmarked) [PBD monomer disulfide prodrug 12] | 83.6 | 156 | 31.1 | 72.7% | 9.5 |  |  |  |  |  | 
C=C1C[C@H]2C(O)N(C(=O)OCCSSCCO)c3cc(OC)c(OC)cc3C(=O)N2C1 (some centres unmarked) [PBD monomer disulfide prodrug 29] | 57.8 | 142 | 29.1 | 0% | 0 |  |  |  |  |  | 
C=C1C[C@H]2C(O)N(C(=O)OCC3(SSC(C)C)CC3)c3cc(OC)c(OC)cc3C(=O)N2C1 (some centres unmarked) [PBD monomer disulfide prodrug 7] | > 30000 | > 30000 | 11000 | 96.1% | 89.7 |  |  |  |  |  | 
C=C1C[C@H]2C(O)N(C(=O)OCCSSC3CCCC3)c3cc(OC)c(OC)cc3C(=O)N2C1 (some centres unmarked) [PBD monomer disulfide prodrug 28] | 2300 | 2100 | 920 | 62.2% | 0 |  |  |  |  |  | 
C=C1C[C@H]2C(O)N(C(=O)OCCSSCCC(=O)O)c3cc(OC)c(OC)cc3C(=O)N2C1 (some centres unmarked) [PBD monomer disulfide prodrug 27] | 958 | 939 | 261 |  | 0 |  |  |  |  |  | 
C=C1C[C@H]2C(O)N(C(=O)OC[C@@H](C)SSC(C)(C)C)c3cc(OC)c(OC)cc3C(=O)N2C1 (some centres unmarked) [PBD monomer disulfide prodrug 13] | > 10000 | > 10000 | > 10000 | 99.9% | 98.8 |  |  |  |  |  | 
C=C1C[C@H]2C(O)N(C(=O)OCC(C)(C)SSC(C)C)c3cc(OC)c(OC)cc3C(=O)N2C1 (some centres unmarked) [PBD monomer disulfide prodrug 10] | 4810 | 4730 | 1830 | 99.4% | 88.5 |  |  |  |  |  | 
C=C1C[C@H]2C(O)N(C(=O)OCc3ccc(SSC(C)C)cc3)c3cc(OC)c(OC)cc3C(=O)N2C1 (some centres unmarked) [PBD monomer disulfide prodrug 19] | 77.4 | 147 | 37.7 | 4.4% | 0 |  |  |  |  |  | 
C=C1C[C@H]2C(O)N(C(=O)OCC(COC)SSC(C)C)c3cc(OC)c(OC)cc3C(=O)N2C1 (some centres unmarked) [PBD monomer disulfide prodrug 21] |  |  |  | 74.7% | 0 |  |  |  |  |  | 
C=C1C[C@H]2C(O)N(C(=O)OCC(CN(C)C)SSC(C)C)c3cc(OC)c(OC)cc3C(=O)N2C1 (some centres unmarked) [PBD monomer disulfide prodrug 20] |  |  |  | 0% | 0 |  |  |  |  |  | 34
